Test results reported in US20130296311A1, “INHIBITORS OF HCV NS5A” (PRESIDIO PHARMACEUTICALS, INC., priority 2010, published 2013).

These compounds were tested on HCV 1b_Huh-Luc/Neo-ET cell line persistently expressing a bicistronic genotype 1b replicon in Huh 7 cells (assay: HCV replicon assay (luciferase readout, 72 h)). Settings: Hepatitis C virus, Huh-7, 72 h, read-out: Inhibition of HCV genotype 1b.
Type: cell-based, HCV genotype 1b
In short: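 Huh 7 cells carrying a bicistronic genotype 1b luciferase/neo replicon received compound in triplicate the day after plating. After 72 h, replicon levels were read as Bright-Glo luciferase activity, expressed as % of control; EC50 was fitted with a four-parameter logistic and determined several times.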
In the case of `COC(=O)N[C@H](C(=O)N1CCC[C@H]1c1ncc(-c2cc(C)c(C#Cc3ccc4nc([C@@H]5CCCN5C(=O)[C@@H](NC(=O)OC)C(C)C)[nH]c4c3)c(C)c2)[nH]1)C(C)C` [Compound 1060], the EC50 is reported as < 1 nM.
For `COC(=O)N[C@@H](C(=O)N1CCC[C@H]1c1ncc(-c2ccc(C#Cc3ccc(-c4cnc([C@@H]5CCCN5C(=O)[C@H](C)c5ccccc5)[nH]4)cc3)cc2)[nH]1)c1ccccc1` [Compound 256], the EC50 was < 1 nM.
For `COC(=O)N[C@H](C(=O)N[C@@H](C)c1ncc(-c2ccc(C#Cc3ccc(-c4cnc([C@@H]5CCCN5C(=O)[C@@H](NC(=O)OC)[C@@H](C)OC)[nH]4)cc3)cc2)[nH]1)[C@@H](C)OC` [Compound 289], the EC50 was < 1 nM.
With `COC(=O)NC(C(=O)N[C@@H](C)c1ncc(-c2ccc(C#Cc3ccc(-c4cnc([C@@H]5CCCN5C(=O)[C@H](NC(=O)OC)c5ccccc5)[nH]4)cc3)cc2)[nH]1)c1ccccc1` (stereo partly drawn) [Compound 279] the EC50 was < 1 nM.
In the case of `CC(C)(C)OC(=O)NC(C)(C)C(=O)N1CCC[C@H]1c1ncc(C#Cc2ccc(-c3cnc([C@@H]4CCCN4C(=O)C(C)(C)NC(=O)OC(C)(C)C)[nH]3)cc2)[nH]1` [Compound 106], the EC50 is reported as > 1000 nM.
In the case of `CN(C)[C@@H](C(=O)N1CCC[C@H]1c1ncc(-c2ccc(C#Cc3ccc(-c4cnc([C@@H]5CCCN5C(=O)[C@H](NC(=O)C5CC5)c5ccccc5)[nH]4)cc3)cc2)[nH]1)c1ccccc1` [Compound 215], the EC50 is reported as < 1 nM.
For `O=C(N[C@@H](C(=O)N1CCC[C@H]1c1nc(-c2ccc3cc(C#Cc4cnc([C@@H]5CCCN5C(=O)[C@H](NC(=O)N5CC[C@@H](O)C5)c5ccccc5)[nH]4)ccc3c2)c[nH]1)c1ccccc1)N1CC[C@@H](O)C1` [Compound 807], the EC50 was 1 to 9.9 nM.
`COC(=O)N[C@@H](C(=O)N1CCC[C@H]1c1ncc(C#Cc2ccc(-c3ccc(-c4cnc([C@@H]5CCCN5C(=O)[C@@H](c5ccccc5)N5CCOCC5)[nH]4)cc3)cc2)[nH]1)c1ccccc1` [Compound 758] was tested, and the EC50 was < 1 nM.
`COC(=O)NC(C)(C)C(=O)N1CCC[C@H]1c1ncc(-c2ccc(C#Cc3ccc4nc([C@@H]5CCCN5C(=O)C(C)(C)NC(=O)OC)[nH]c4c3)cc2)[nH]1` [Compound 1050] showed an EC50 of 10 to 999 nM.
In the case of `COC(=O)N[C@@H](C(=O)N1CCC[C@H]1c1ncc(-c2ccc(C#Cc3ccc(-c4cnc([C@@H]5CCCN5C(=O)[C@H](NC(=O)N5CCC(C)(O)CC5)c5ccccc5)[nH]4)cc3)cc2)[nH]1)c1ccccc1` [Compound 273], the EC50 is reported as < 1 nM.
`CC(C)OC(=O)N[C@@H](C(=O)N1CCC[C@H]1c1ncc(-c2ccc(C#Cc3ccc(-c4cnc([C@@H]5CCCN5C(=O)[C@H](NC(=O)OC(C)C)c5ccccc5)[nH]4)cc3)cc2)[nH]1)c1ccccc1` [Compound 227] was tested, and the EC50 was < 1 nM.
For `CN(C)C(=O)N[C@@H](C(=O)N1CCC[C@H]1c1ncc(-c2ccc(C#Cc3ccc(-c4cnc([C@@H]5CCCN5C(=O)[C@H](NC(=O)N(C)C)c5ccccc5)[nH]4)cc3)cc2)[nH]1)c1ccccc1` [Compound 161], the EC50 was < 1 nM.
For `C[C@H]1OC(=O)N[C@@H]1C(=O)N1CCC[C@H]1c1ncc(-c2ccc(C#Cc3ccc(-c4cnc([C@@H]5CCCN5C(=O)[C@H]5NC(=O)O[C@@H]5C)[nH]4)cc3)cc2)[nH]1` [Compound 979], the EC50 was 10 to 999 nM.
For `COC(=O)N[C@@H](C(=O)N1CCC[C@H]1c1ncc(-c2ccc(C#Cc3ccc(-c4cnc([C@@H]5CCCN5C(=O)[C@H](NC(=O)N5CC[C@@H](O)C5)c5ccccc5)[nH]4)cc3)cc2)[nH]1)c1ccccc1` [Compound 268], the EC50 was < 1 nM.
`C[C@@H](NC(=O)OC(C)(C)C)C(=O)N1CCC[C@H]1c1ncc(-c2ccc(C#Cc3ccc(-c4cnc([C@@H]5CCCN5C(=O)[C@@H](C)NC(=O)OC(C)(C)C)[nH]4)cc3)cc2)[nH]1` [Compound 151] was tested, and the EC50 was 10 to 999 nM.
`COC(=O)N[C@H](C(=O)N1CCC[C@H]1c1ncc(-c2ccc(C#Cc3ccc(-c4cnc([C@@H]5CCCN5C(=O)[C@@H](C(C)C)N(C)C)[nH]4)cc3)cc2)[nH]1)C(C)C` [Compound 954] showed an EC50 of 1 to 9.9 nM.
`COC(=O)N[C@H](C(=O)N[C@@H](C)c1ncc(-c2ccc(C#Cc3ccc(-c4cnc([C@@H]5CCCN5C(=O)[C@@H](c5ccccc5)N(C)C)[nH]4)cc3)cc2)[nH]1)C(C)C` [Compound 965] was tested, and the EC50 was < 1 nM.
`COC(=O)NC(C(=O)N1CCC[C@H]1c1nc2ccc(C#Cc3ccc4cc(-c5cnc([C@@H]6CCCN6C(=O)[C@@H](NC(=O)OC)C(C)C)[nH]5)ccc4n3)cc2[nH]1)C(C)C` (stereo partly drawn) [Compound 1107] was tested, and the EC50 was < 1 nM.
`COC(=O)N[C@@H](C(=O)N1CCC[C@H]1c1ncc(-c2ccc(C#Cc3ccc(-c4cnc([C@@H]5CCCN5C(=O)OCc5ccccc5)[nH]4)cc3)cc2)[nH]1)c1ccccc1` [Compound 200] was tested, and the EC50 was < 1 nM.
For `CC(=O)N[C@@H](C(=O)N1CCC[C@H]1c1ncc(-c2ccc(C#Cc3ccc(-c4cnc([C@@H]5CCCN5C(=O)[C@H](NC(C)=O)c5ccccc5)[nH]4)cc3)cc2)[nH]1)c1ccccc1` [Compound 158], the EC50 was < 1 nM.
With `CNC(=O)N[C@@H](C(=O)N1CCC[C@H]1c1ncc(-c2ccc(C#Cc3ccc(-c4cnc([C@@H]5CCCN5C(=O)[C@H](NC(=O)C5CC5)c5ccccc5)[nH]4)cc3)cc2)[nH]1)c1ccccc1` [Compound 997] the EC50 was < 1 nM.
For `CC(C)[C@@H](NC(=O)C1CC1)C(=O)N1CCC[C@H]1c1ncc(C#Cc2ccc(-c3cnc([C@@H]4CCCN4C(=O)[C@H](NC(=O)C4CC4)C(C)C)[nH]3)cc2)[nH]1` [Compound 107], the EC50 was 1 to 9.9 nM.
`CN(C)[C@@H](C(=O)N1CCC[C@H]1c1ncc(-c2ccc(C#Cc3ccc(-c4cnc([C@@H]5CCCN5C(=O)[C@@H](c5ccccc5)N(C)C)[nH]4)cc3)cc2)[nH]1)c1ccccc1` [Compound 160] was tested, and the EC50 was < 1 nM.

Same assay, conditions: Hepatitis C virus, Huh-7, read-out: Inhibition of HCV genotype 1b
In the case of `COC(=O)N[C@H](C(=O)N1CCN(C(C)=O)C[C@H]1c1ncc(-c2ccc(C#Cc3ccc4nc([C@@H]5CCCN5C(=O)[C@@H](NC(=O)OC)C5CCOCC5)[nH]c4c3)cc2)[nH]1)C1CCOCC1` [Compound 1234], the EC50 is reported as 1 to 9.9 nM.
`COC(=O)N[C@H](C(=O)N1CCC[C@H]1c1nc(C(F)(F)F)c(C#Cc2ccc3cc(-c4cnc([C@@H]5CCCN5C(=O)[C@@H](NC(=O)OC)[C@@H](C)OC)[nH]4)ccc3c2)[nH]1)C(C)C` [Compound 1261] was tested, and the EC50 was < 1 nM.
For `COC(=O)N[C@H](C(=O)N1CCN(C(C)=O)C[C@H]1c1ncc(-c2ccc(C#Cc3ccc4nc([C@@H]5CCCN5C(=O)[C@@H](NC(=O)OC)C(C)C)[nH]c4c3)cc2)[nH]1)C(C)C` [Compound 1232], the EC50 was < 1 nM.
For `CC[C@H](C)[C@H](NC(=O)OC)C(=O)N1CCC[C@H]1c1ncc(-c2ccc3cc(C#Cc4[nH]c([C@@H]5CCCN5C(=O)[C@@H](NC(=O)OC)[C@@H](C)CC)nc4C(F)(F)F)ccc3c2)[nH]1` [Compound 1253], the EC50 was < 1 nM.
`COC(=O)N[C@H](C(=O)N1CCC[C@H]1c1nc2c([nH]1)-c1ccc(C#Cc3ccc4nc([C@@H]5CCCN5C(=O)[C@@H](NC(=O)OC)C5CCOCC5)[nH]c4c3)cc1CCC2)C(C)C` [Compound 1280] was tested, and the EC50 was < 1 nM.
With `CCN(CC)C(=O)c1cc(-c2cnc([C@@H]3CCCN3C(=O)[C@@H](NC(=O)OC)C(C)C)[nH]2)ccc1C#Cc1ccc(-c2cnc([C@@H]3CCCN3C(=O)[C@@H](NC(=O)OC)C(C)C)[nH]2)cc1` [Compound 1209] the EC50 was < 1 nM.
For `COC(=O)N[C@H](C(=O)N1CCC[C@H]1c1ncc(-c2ccc(C#Cc3ccc(-c4cnc([C@@H]5CCCN5C(=O)[C@H](NC(=O)OC)c5ccsc5)[nH]4)cc3)cc2)[nH]1)[C@@H](C)OC` [Compound 1212], the EC50 was < 1 nM.
